Results as given in article PMC9403717, “Ruthenium complexes show potent inhibition of AKR1C1, AKR1C2, and AKR1C3 enzymes and anti-proliferative action against chemoresistant ovarian cancer cell line” (Frontiers in Pharmacology, 2022).
Several values for one entry are separate records, joined by “and”; a condition that tells them apart may be missing. Equal values may be shown once.

test system: COV362 cells; test: Cell proliferation assay (alamarBlue), chemoresistant ovarian cancer cell line COV362; assay type: cell-based, human; conditions: not given
Method: The cell line COV362 (CVCL_2,420) was originally established from a high-grade ovarian serous adenocarcinoma from a metastatic site in the pleural effusion ([van den Berg-Bakker et al., 1993]) and was purchased from ECACC (ECACC 07071910) as p37 on 13 October 2017. The growth medium for COV362 cells was DMEM (D5546; Sigma–Aldrich GmbH), with 10% FBS (F9665; Sigma–Aldrich GmbH) and 2 mM L-glutamine (G7513; Sigma–Aldrich GmbH). COV362 cells in passages p37 + 12 to p37 + 17 were used in this study and seeded at a concentration of 3.5 cells/ml × 10^4 cells/ml for proliferation studies and at a concentration of 5.3 × 10^5/ml for migration studies. The cell line OVCAR-4 (CVCL_1,627) is a high-grade serous ovarian adenocarcinoma cell line established from a patient refractory to cisplatin ([Johnson et al., 1997]). The cell line was purchased from Merck on 19 March 2021. The growth medium for OVCAR-4 cells was RPMI-1640 (Sigma R5586) supplemented with 2 mM glutamine (G7513; Sigma–Aldrich GmbH), 10% FBS (F9665; Sigma–Aldrich GmbH), 0.25 μg/ml insulin (I9278; Sigma–Aldrich GmbH). OVCAR-4 cells in passages p+6 to p+15 were used in this study and seeded at a concentration of 6 cells/ml × 10^4 cells/ml. The control cell line HIO80 (CVCL_E274) was obtained from Andrew K. Godwin (University of Kansas Medical Center, Kansas, United States) on 20 October 2017 as p+72. It was originally established from ovarian surface epithelium ([Yang et al., 2004]). HIO80 cells were grown in RPMI medium (R5886, Sigma–Aldrich GmbH) supplemented with 10% FBS (F9665; Sigma–Aldrich GmbH), 2 mm L-glutamine (G7513; Sigma–Aldrich GmbH) and 6.6 µg/ml insulin (I9278; Sigma–Aldrich GmbH). HIO80 cells in passages p72 + 8 to p72 + 19 were used in this study and seeded at a concentration of 2 × 10^4 cells/mL. HIO80 in passage +10 was authenticated by short tandem repeats (STR) profiling performed by ATCC on 22 February 2019. Cells were grown in a humidified atmosphere containing 5% CO2 at 37°C. All cell lines were negative for mycoplasma infection which was periodically tested using MycoAlert^TM mycoplasma detection kit (Lonza, Basel, Switzerland).
The effect of ruthenium compounds on the proliferation of ovarian cancer cell lines COV362 and OVCAR-4 and the control cell line HIO80 was analyzed using the cell proliferation reagent alamarBlue HS (A50101; Thermo Fisher Scientific) following the manufacturer’s instructions.
Cells were seeded in 96-well plates in 100 µL of medium and allowed to adhere and grow for 24 h. […] Cisplatin and carboplatin purchased from Sigma–Aldrich GmbH (cat. number: PHR1624, lot: LRAB7778) and (cat. number: C2538, lot: MKCK1243) were dissolved in sterile water. Working solutions were prepared by a serial dilution of stock solutions with a culture medium. After the initial incubation, cells were treated with ruthenium complexes, cisplatin, and carboplatin. A range of final concentrations between 0.001 and 300 µM were used for ruthenium complexes and cisplatin, and between 0.001 µM and 1 mM for carboplatin. After 48 h of incubation, plates were incubated with 20 µL of alamarBlue. After 4 h absorbance was measured with a BioTek microplate spectrophotometer at 570 nm, with the reference wavelength set at 600 nm. First, the background value of a well containing the active substance without cells was subtracted, then the average values for duplicates/triplicates were calculated. The absorbance of the well containing only untreated cells was used as a normalization control. The half-maximal […] concentration (IC50) was determined for all ruthenium complexes with a growth-inhibiting effect on cells by constructing a dose-response curve (Graph Pad Prism, Version 8.0).

Row | SMILES | effect on proliferation (in words)
1 | C1N2CN3CN1CP(C2)C3.Cc1ccc(C(C)C)cc1.F[P-](F)(F)(F)(F)F.O=[N+]([O-])c1ccc([O][Ru+])c2ncccc12 [Compound 10, (η ^6-p-cymene)(nitroxolinato)(pta)ruthenium(II) hexafluorophosphate] | inactive

same assay, conditions: 48 h incubation

Row | SMILES | IC50
2 | Cc1ccc(C(C)C)cc1.O=C(C=C([O][Ru][Cl])c1ccc(I)cc1)C(F)(F)F [Compound 1] | 96.6 µM
3 | C1N2CN3CN1CP(C2)C3.Cc1ccc(C(C)C)cc1.F[P-](F)(F)(F)(F)F.O=C(C=C([O][Ru+])c1ccc(I)cc1)C(F)(F)F [Compound 2] | 141 µM
4 | CN(C)c1ccc(C(=CC(=O)C(F)(F)F)[O][Ru][Cl])cc1.Cc1ccc(C(C)C)cc1 [Compound 3, (η^6-p-cymene)chlorido(4,4,4-trifluoro-1-(4-(dimethylamino)phenyl)-1,3-butandionato)ruthenium(II)] | < 100 µM and 90.2 µM
5 | Cc1ccc(C(C)C)cc1.O=C(C=C([O][Ru][Cl])c1ccc2c(c1)OCO2)C(F)(F)F [Compound 5] | 136 µM
6 | C1N2CN3CN1CP(C2)C3.Cc1ccc(C(C)C)cc1.F[P-](F)(F)(F)(F)F.O=C(C=C([O][Ru+])c1ccc2c(c1)OCO2)C(F)(F)F [Compound 6] | 152 µM
7 | Cc1ccc(C(C)C)cc1.[Cl-].[O-]c1c(I)cc(Cl)c2cccnc12.[Ru+2] [Compound 7] | 17.7 µM
8 | C1N2CN3CN1CP(C2)C3.Cc1ccc(C(C)C)cc1.F[P-](F)(F)(F)(F)F.[O-]c1c(I)cc(Cl)c2cccnc12.[Ru+2] [Compound 8] | 38 µM
9 | Cc1ccc(C(C)C)cc1.O=[N+]([O-])c1ccc([O][Ru][Cl])c2ncccc12 [Compound 9, (η ^6-p-Cymene) (nitroxolinato)chloridoruthenium (II)] | 21.5 µM
10 | C1N2CN3CN1CP(C2)C3.Cc1ccc(C(C)C)cc1.F[P-](F)(F)(F)(F)F.O=[N+]([O-])c1ccc([O][Ru+])c2ncccc12 [Compound 10, (η ^6-p-cymene)(nitroxolinato)(pta)ruthenium(II) hexafluorophosphate] | > 200 µM
